According to patent US20130150377A1, “Tetrahydropyridinyl and Dihydropyrrolyl Compounds and the Use Thereof” (SHIONOGI & CO., LTD., priority 2008, published 2013):

Biological target: T1, N-type calcium channel (NTCC) (Homo sapiens, UniProt Q00975)
T1 construct: endogenous in cells; host or cells: differentiated IMR32 cells (ATCC)
Assay: FLIPR calcium mobilization assay for N-type calcium channel (differentiated IMR32 cells)
Assay type: cell-based
Conditions: N-type calcium channel blockers, calcium mobilization in vitro assay
Protocol: Cell maintenance and differentiation. Unless noted otherwise, cell culture reagents were purchased from Mediatech of Herndon, Md. IMR32 cells (American Type Culture Collection, ATCC, Manassas, Va.) were routinely cultured in growth medium consisting of minimum essential medium containing 10% fetal bovine serum (FBS, Hyclone, Logan, Utah), 100 U/mL penicillin, 100 μg/mL streptomycin, 2 mM L-glutamine, 1 mM sodium pyruvate, and 1×MEM non-essential amino acids. 80-90% confluent flasks of cells were differentiated using the following differentiation medium: Growth medium plus 1 mM dibutyryl cyclic AMP (Sigma, St. Louis, Mo.), and 2.5 μM bromodeoxyuridine (Sigma). Cells were differentiated for 8 days by replacing differentiation medium every 2-3 days.
FLIPR Calcium Mobilization Assay for N-type Calcium Channel.
One day prior to performing this assay, differentiated IMR32 cells were treated with 1× CellStripper, and seeded on poly-D-lysine-coated 96-well clear-bottom black plates (Becton Dickinson, Franklin Lakes, N.J.) at 200,000 cells/well. On the day of the assay, the cell plates were washed with IMR32 buffer (127 mM NaCl, 1 mM KCl, 2 mM MgCl2, 700 μM NaH2PO4, 5 mM CaCl2, 5 mM NaHCO3, 8 mM HEPES, 10 mM glucose, pH 7.4), then pre-stimulated with KCl and loaded as follows: […] of IMR32 buffer, 0.05 mL of each compound tested diluted in IMR32 buffer containing 20 μM nitrendipine (Sigma), and 0.1 mL KCl dissolved in IMR32 buffer, plus Fluo-4 were added (3 μM final concentration, Molecular Probes, Eugene, Oreg.). Final test compound concentrations ranged from about 846 pM to about 17 μM, final nitrendipine concentration was 5 μM, and final KCl concentration was 90 mM. After 1 hour, the cells were washed twice with 0.05 mL of each compound tested in nitrendipine-containing IMR32 buffer (no KCl or Fluo-4), and then replaced with 0.1 mL of each compound tested in nitrendipine-containing IMR32 buffer. Plates were then transferred to a Fluorimetric Imaging Plate Reader (FLIPR^96, Molecular Devices, Inc., Sunnyvale, Calif.) for assay. The FLIPR measured basal Fluo-4 fluorescence for 315 seconds (i.e., 5 minutes and 15 seconds), then added 0.1 mL KCl agonist dissolved in IMR32 buffer and measured fluorescence for another 45 seconds. Final test compound concentrations on the cells after FLIPR read ranged from about 846 pM to about 17 μM, final nitrendipine concentration was 5 μM, and final KCl concentration was 90 mM. Data were collected over the entire time course and analyzed using Excel, Graph Pad Prism (version 3.02, Graph Pad, San Diego, Calif.), or an in-house non-linear regression analysis software.

T1 sequence (Q00975 whole entry): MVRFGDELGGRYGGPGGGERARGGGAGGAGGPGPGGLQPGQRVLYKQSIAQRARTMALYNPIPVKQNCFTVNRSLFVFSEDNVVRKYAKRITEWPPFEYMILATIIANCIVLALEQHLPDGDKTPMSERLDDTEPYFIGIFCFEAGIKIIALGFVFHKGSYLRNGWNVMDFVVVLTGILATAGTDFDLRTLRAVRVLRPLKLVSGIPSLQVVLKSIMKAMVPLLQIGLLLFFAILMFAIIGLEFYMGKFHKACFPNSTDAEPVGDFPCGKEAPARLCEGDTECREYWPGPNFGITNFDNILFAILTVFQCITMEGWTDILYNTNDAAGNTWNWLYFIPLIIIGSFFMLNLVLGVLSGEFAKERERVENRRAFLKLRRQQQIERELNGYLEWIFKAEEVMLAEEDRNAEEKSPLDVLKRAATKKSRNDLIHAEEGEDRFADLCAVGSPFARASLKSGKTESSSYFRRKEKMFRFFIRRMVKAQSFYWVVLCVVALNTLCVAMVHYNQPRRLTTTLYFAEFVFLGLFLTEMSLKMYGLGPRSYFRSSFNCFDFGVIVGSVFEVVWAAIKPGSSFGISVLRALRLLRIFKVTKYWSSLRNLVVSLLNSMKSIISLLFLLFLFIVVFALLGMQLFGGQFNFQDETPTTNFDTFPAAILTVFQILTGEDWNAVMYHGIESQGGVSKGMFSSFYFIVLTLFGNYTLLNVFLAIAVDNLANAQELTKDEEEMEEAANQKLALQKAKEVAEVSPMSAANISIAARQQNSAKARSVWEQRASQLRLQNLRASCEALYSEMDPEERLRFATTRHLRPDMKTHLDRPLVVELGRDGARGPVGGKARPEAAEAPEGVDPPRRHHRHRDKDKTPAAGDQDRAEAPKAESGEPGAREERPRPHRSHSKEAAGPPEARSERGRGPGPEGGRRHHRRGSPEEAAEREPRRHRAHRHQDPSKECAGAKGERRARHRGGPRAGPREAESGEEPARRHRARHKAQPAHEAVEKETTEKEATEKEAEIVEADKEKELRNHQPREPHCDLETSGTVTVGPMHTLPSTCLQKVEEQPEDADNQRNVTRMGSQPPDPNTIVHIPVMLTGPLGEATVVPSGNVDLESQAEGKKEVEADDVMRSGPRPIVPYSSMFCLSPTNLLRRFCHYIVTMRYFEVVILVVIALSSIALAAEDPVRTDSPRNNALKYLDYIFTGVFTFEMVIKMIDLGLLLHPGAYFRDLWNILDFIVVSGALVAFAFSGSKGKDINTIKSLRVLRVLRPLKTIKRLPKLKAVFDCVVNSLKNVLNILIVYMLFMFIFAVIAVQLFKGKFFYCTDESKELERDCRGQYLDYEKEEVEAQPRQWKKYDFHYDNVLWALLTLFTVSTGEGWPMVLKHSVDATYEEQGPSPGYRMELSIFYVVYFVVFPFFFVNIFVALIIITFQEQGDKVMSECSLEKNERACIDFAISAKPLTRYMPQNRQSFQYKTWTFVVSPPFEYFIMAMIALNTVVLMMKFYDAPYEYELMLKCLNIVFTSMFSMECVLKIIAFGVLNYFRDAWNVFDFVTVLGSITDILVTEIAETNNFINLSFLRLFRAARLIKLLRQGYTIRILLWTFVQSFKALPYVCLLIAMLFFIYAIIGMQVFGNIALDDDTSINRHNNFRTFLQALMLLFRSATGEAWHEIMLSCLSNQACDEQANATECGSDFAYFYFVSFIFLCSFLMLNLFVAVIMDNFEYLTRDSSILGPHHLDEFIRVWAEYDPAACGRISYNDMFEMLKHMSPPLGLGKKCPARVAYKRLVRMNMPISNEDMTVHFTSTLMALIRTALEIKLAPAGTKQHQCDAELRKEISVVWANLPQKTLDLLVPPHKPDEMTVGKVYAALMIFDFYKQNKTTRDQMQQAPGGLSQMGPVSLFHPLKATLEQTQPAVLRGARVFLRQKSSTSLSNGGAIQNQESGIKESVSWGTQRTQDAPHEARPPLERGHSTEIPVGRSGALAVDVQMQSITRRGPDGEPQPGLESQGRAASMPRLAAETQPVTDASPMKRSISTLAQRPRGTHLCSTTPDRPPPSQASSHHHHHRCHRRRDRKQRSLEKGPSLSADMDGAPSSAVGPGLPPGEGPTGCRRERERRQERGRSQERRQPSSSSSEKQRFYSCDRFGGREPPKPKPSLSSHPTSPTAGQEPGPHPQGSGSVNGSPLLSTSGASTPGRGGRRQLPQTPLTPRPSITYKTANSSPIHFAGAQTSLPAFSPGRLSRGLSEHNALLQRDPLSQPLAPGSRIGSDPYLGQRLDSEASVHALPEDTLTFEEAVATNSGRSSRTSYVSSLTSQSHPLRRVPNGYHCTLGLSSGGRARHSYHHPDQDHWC
T1 sequence (P54289 25-956 partner limits assumed): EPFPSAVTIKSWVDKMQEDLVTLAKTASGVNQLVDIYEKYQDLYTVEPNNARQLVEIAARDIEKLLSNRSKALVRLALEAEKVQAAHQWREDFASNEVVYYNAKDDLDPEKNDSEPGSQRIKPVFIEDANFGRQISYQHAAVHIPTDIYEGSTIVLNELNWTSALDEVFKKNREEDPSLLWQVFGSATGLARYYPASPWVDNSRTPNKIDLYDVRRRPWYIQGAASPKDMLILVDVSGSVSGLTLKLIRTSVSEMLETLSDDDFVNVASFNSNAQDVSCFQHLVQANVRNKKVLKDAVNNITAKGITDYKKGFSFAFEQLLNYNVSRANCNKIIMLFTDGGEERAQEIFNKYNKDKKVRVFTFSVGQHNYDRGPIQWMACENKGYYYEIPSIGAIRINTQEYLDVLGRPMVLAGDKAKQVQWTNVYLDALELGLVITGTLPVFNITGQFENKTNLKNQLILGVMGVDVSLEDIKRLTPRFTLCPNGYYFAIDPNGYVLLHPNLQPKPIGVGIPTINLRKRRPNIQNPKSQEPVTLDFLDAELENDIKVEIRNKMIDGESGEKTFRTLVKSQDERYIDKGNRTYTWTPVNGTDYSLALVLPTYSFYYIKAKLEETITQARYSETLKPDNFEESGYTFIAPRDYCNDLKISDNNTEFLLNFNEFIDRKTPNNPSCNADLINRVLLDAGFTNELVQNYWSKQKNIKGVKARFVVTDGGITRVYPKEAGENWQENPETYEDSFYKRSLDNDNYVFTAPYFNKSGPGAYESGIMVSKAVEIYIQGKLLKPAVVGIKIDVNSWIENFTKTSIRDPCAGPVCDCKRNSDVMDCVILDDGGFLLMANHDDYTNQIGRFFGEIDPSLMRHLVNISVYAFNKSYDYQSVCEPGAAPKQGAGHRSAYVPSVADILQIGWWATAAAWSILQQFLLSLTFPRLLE
T1 sequence (P54289 957-1103 partner limits assumed): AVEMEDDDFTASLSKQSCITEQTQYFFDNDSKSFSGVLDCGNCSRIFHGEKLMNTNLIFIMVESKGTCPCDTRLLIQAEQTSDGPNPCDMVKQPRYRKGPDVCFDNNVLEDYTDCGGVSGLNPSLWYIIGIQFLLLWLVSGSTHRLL
T1 sequence (P54284 whole entry partner): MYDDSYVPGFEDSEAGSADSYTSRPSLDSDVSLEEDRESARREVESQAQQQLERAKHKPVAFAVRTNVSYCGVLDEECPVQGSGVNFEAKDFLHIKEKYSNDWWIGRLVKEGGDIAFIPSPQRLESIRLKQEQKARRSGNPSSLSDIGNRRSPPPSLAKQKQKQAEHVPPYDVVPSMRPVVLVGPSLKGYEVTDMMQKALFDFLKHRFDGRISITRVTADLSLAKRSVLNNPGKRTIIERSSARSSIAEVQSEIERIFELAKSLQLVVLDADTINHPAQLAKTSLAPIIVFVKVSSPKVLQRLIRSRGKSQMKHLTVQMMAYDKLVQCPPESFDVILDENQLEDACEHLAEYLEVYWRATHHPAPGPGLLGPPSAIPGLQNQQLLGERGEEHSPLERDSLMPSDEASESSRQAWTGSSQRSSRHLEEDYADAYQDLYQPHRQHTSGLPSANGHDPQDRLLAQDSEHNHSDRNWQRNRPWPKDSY

First: O=C(NC1CC1)c1cccc(C2=CCN(S(=O)(=O)c3ccccc3C(F)(F)F)CC2)n1 [1′-(2-Trifluoromethylbenzenesulfonyl)-1′,2′,3′,6′-tetrahydro-[2,4′]bipyridinyl-6-carboxylic acid cyclopropylamide]
Second: O=C(NC1CC1)c1cccc(C2=CCN(S(=O)(=O)c3cccc(OC(F)(F)F)c3)CC2)n1 [1′-(3-Trifluoromethoxybenzenesulfonyl)-1′,2′,3′,6′-tetrahydro-[2,4′]bipyridinyl-6-carboxylic acid cyclopropylamide]
The IC50 of the first is 2-fold higher: 80 nM for the first, 40 nM for the second.

First: CC(C)CS(=O)(=O)N1CC=C(c2cccc(C(=O)NC3CC3)n2)CC1 [1′-(2-Methylprop-1-ylsulfonyl)-1′,2′,3′,6′-tetrahydro-[2,4′]bipyridinyl-6-carboxylic acid cyclopropylamide]
Second: O=C(NC1CC1)c1cccc(C2=CCN(S(=O)(=O)c3cccc(Cl)c3)CC2)n1 [1′-(3-Chlorobenzenesulfonyl)-1′,2′,3′,6′-tetrahydro-[2,4′]bipyridinyl-6-carboxylic acid cyclopropylamide]
The IC50 of the first is 18-fold higher: 1460 nM for the first, 80 nM for the second.

Going from `NC(=O)c1ccnc(C2=CCN(S(=O)(=O)c3ccc(OC(F)(F)F)cc3)CC2)n1` [Compound 15, 2-[1-(4-Trifluoromethoxybenzenesulfonyl)-1,2,3,6-tetrahydropyridin-4-yl]-pyrimidine-4-carboxylic acid amide] to `O=C(NC1CC1)c1cccc(C2=CCN(S(=O)(=O)c3ccc(OC(F)(F)F)cc3)CC2)n1` [1′-(4-Trifluoromethoxybenzenesulfonyl)-1′,2′,3′,6′-tetrahydro-[2,4′]bipyridinyl-6-carboxylic acid cyclopropylamide], the IC50 falls from > 20000 nM to 290 nM.

Going from `N#Cc1cccc(S(=O)(=O)N2CC=C(c3cccc(C(=O)NC4CC4)n3)CC2)c1` [1′-(3-Cyanobenzenesulfonyl)-1′,2′,3′,6′-tetrahydro-[2,4′]bipyridinyl-6-carboxylic acid cyclopropylamide] to `O=C(NC1CC1)c1cccc(C2=CCN(S(=O)(=O)c3ccc(F)cc3)CC2)n1` [1′-(4-Fluorobenzenesulfonyl)-1′,2′,3′,6′-tetrahydro-[2,4′]bipyridinyl-6-carboxylic acid cyclopropylamide], the IC50 rises from 50 nM to 350 nM (7-fold).

Going from `O=C(NC1CC1)c1cccc(C2=CCN(S(=O)(=O)c3ccc(Cl)cc3Cl)CC2)n1` [1′-(2,4-Dichlorobenzenesulfonyl)-1′,2′,3′,6′-tetrahydro-[2,4′]bipyridinyl-6-carboxylic acid cyclopropylamide] to `O=C(NC1CC1)c1cccc(C2=CCN(S(=O)(=O)Nc3cccc(C(F)(F)F)c3)CC2)n1` [Compound 86, 1′-[(3-Trifluoromethylbenzene)aminosulfonyl]-1′,2′,3′,6′-tetrahydro-[2,4′]bipyridinyl-6-carboxylic acid cyclopropylamide], the IC50 rises from 190 nM to 1050 nM (5.5-fold).

Going from `O=S(=O)(c1cccc(C(F)(F)F)c1)N1CC=C(c2cccc(CO)n2)CC1` [1′-(3-Trifluoromethylbenzenesulfonyl)-1′,2′,3′,6′--tetrahydro-[2,4′]bipyridinyl-6-yl]methanol] to `O=C(Nc1cccc(C2=CCN(S(=O)(=O)c3cccc(C(F)(F)F)c3)CC2)n1)C1CC1` [Compound 82, 1′-(3-Trifluoromethylbenzenesulfonyl)-1′,2′,3′,6′-tetrahydro[2,4′]bipyridinyl-6-cyclopropanoylamine], the IC50 falls from 4240 nM to 300 nM (14-fold). The second is the more potent here.

Compared with `O=C(NC(CO)CO)c1cccc(C2=CCN(S(=O)(=O)c3cccc(C(F)(F)F)c3)CC2)n1` [1′-(3-Trifluoromethylbenzenesulfonyl)-1′,2′,3′,6′-tetrahydro-[2,4′]bipyridinyl-6-carboxylic acid 1,3-dihydroxyprop-2-ylamide], `O=C(NC1CC1)c1cccc(C2=CCN(S(=O)(=O)Cc3cccc(C(F)(F)F)c3)CC2)n1` [1′-(3-Trifluoromethylbenzylsulfonyl)-1′,2′,3′,6′-tetrahydro-[2,4′]bipyridinyl-6-carboxylic acid cyclopropylamide] is 7.4-fold higher in IC50: 90 nM for the first, 670 nM for the second.
